Source: US9149465B2, “Isoxazolines as inhibitors of fatty acid amide hydrolase” (Infinity Pharmaceuticals, Inc., priority 2009, dated 2015)

These molecules were tested against T1, human FAAH (Homo sapiens, UniProt O00519) (assay: Inhibition of human FAAH (AMC arachidonoyl amide fluorescence assay)). Settings: inhibitor preincubated 30 minutes at room temperature; 20 μM AMC arachidonoyl amide; 4 hours; read-out: Activity (Ki, inhibitors of human FAAH).
T1 construct: host or cells: COS-7 cells, transient transfection; 13,000 g membrane fraction solubilised in 1% Triton X-100
T1 sequence (O00519 1-579): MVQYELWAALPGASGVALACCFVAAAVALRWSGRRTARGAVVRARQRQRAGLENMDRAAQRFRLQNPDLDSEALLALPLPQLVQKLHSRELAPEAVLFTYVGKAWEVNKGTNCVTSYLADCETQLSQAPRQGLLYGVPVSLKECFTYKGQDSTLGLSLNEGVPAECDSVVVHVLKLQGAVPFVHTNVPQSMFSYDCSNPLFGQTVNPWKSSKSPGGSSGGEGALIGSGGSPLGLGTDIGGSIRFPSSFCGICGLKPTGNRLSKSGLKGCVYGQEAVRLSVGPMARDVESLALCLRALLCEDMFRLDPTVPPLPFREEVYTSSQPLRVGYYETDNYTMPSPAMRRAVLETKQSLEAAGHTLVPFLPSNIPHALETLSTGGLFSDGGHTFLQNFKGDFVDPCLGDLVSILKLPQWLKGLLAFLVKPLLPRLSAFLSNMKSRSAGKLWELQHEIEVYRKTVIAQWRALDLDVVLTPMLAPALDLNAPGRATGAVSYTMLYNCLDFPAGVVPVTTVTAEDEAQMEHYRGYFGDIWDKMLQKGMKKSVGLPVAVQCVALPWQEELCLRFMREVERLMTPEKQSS
Format: biochemical
Outline: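 Solubilized membrane fraction from COS-7 cells transiently expressing human FAAH (0.05 mg/mL final) preincubated 30 min at room temperature with 3-fold serially diluted inhibitor, then reacted 4 h at room temperature with 20 μM AMC arachidonoyl amide. Stopped with α-ketoheterocycle; fluorescence read. Ki from single-site competitive fit, Km fixed at 12 μM.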

SMILES | Ki [nM]
Cn1cc(-c2ccc(OC3=NOC(c4ccc(OC(F)(F)F)cc4)C3)cn2)cn1 (racemic) [I-218] | ≤ 100
Cn1cc(-c2ccc(OC3=NOC(c4ccc(C(F)(F)F)cc4)C3)cn2)cn1 (racemic) [I-219] | ≤ 100
CS(=O)(=O)NC(=O)c1ccc(OC2=NOC(c3ccc(OC(F)(F)F)cc3)C2)cn1 (racemic) [I-220] | ≤ 100
FC(F)(F)Oc1ccc(C2CC(Oc3cccc(-n4cnnc4)c3)=NO2)cc1 (racemic) [I-221] | ≥ 1000
Cc1nnc(-c2cccc(OC3=NOC(C)(c4ccc(OC(F)(F)F)cc4)C3)c2)o1 (racemic) [I-222] | ≤ 100
Cc1nnc(-c2cccc(OC3=NOC(c4ccc(OC(F)(F)F)cc4)C3)c2)o1 (racemic) [I-223] | ≤ 100
Cc1nnc(-c2cc(F)cc(OC3=NOC(c4ccc(OC(F)(F)F)cc4)C3)c2)o1 (racemic) [I-224] | ≤ 100
Fc1cc(OC2=NOC(c3ccc(OC(F)(F)F)cc3)C2)cc(-c2nnco2)c1 (racemic) [I-225] | ≤ 100
Fc1ccc(OC2=NOC(c3ccc(OC(F)(F)F)cc3)C2)cc1-c1nnco1 (racemic) [I-226] | ≤ 100
CC1(c2ccc(OC(F)(F)F)cc2)CC(Oc2ccc(F)c(-c3nnco3)c2)=NO1 (racemic) [I-227] | ≤ 100
CC1(c2ccc(OC(F)(F)F)cc2)CC(Oc2cncc(-c3nnco3)c2)=NO1 (racemic) [I-228] | ≤ 100
Cc1nnc(-c2cncc(OC3=NOC(C)(c4ccc(OC(F)(F)F)cc4)C3)c2)o1 (racemic) [I-229] | ≤ 100
FC(F)(F)Oc1ccc(C2CC(Oc3cncc(-c4nnco4)c3)=NO2)cc1 (racemic) [I-230] | ≤ 100
CC1(c2ccc(OC(F)(F)F)cc2)CC(Oc2cncc(-c3n[nH]c(=O)o3)c2)=NO1 (racemic) [I-231] | 100 to 1000
CC1(c2ccc(OC(F)(F)F)cc2)CC(Oc2cccc(-c3nnco3)c2)=NO1 (racemic) [I-232] | ≤ 100
CN(C)S(=O)(=O)c1cccc(OC2=NOC(C)(c3ccc(OC(F)(F)F)cc3)C2)c1 (racemic) [I-233] | ≥ 1000
CC1(c2ccc(OC(F)(F)F)cc2)CC(Oc2ccc(S(C)(=O)=O)cc2)=NO1 (racemic) [I-234] | 100 to 1000
CN(C)S(=O)(=O)c1ccc(OC2=NOC(C)(c3ccc(OC(F)(F)F)cc3)C2)cc1 (racemic) [I-235] | ≥ 1000
FC(F)(F)Oc1ccc(C2CC(Oc3ccc(-c4cnn[nH]4)nc3)=NO2)cc1 (racemic) [I-236] | ≤ 100
CS(=O)(=O)c1ccc(OC2=NO[C@@H](c3ccc(Br)cc3)C2)cn1 (racemic) [I-237] | ≤ 100
CSc1ccc(OC2=NOC(c3ccc(C(F)(F)F)cc3)C2)cn1 (racemic) [I-238] | ≤ 100
Cn1cc(-c2ccc(OC3=NOC(C)(c4ccc(OC(F)(F)F)cc4)C3)cn2)cn1 (racemic) [I-240] | ≤ 100
Cn1nccc1-c1ccc(OC2=NOC(C)(c3ccc(OC(F)(F)F)cc3)C2)cn1 (racemic) [I-241] | ≤ 100
CC1(c2ccc(OC(F)(F)F)cc2)CC(Oc2ccc(-c3ccn[nH]3)nc2)=NO1 (racemic) [I-242] | ≤ 100

SMILES | Ki [nM]
OCCNC1=NOC(c2ccc(Oc3ccccc3)cc2)C1 (racemic) [I-243] | 100 to 1000
CN(CC(=O)O)C1=NOC(c2ccc(Oc3ccccc3)cc2)C1 (racemic) [I-244] | 100 to 1000
O[C@H](CNC1=NOC(c2ccc(Oc3ccccc3)cc2)C1)c1ccccc1 (mixture of isomers) [I-245] | ≥ 1000
O[C@@H](CNC1=NOC(c2ccc(OC(F)(F)F)cc2)C1)c1ccccc1 (mixture of isomers) [I-246] | ≥ 1000
FC(F)(F)Oc1ccc(C2CC(Sc3ccccc3)=NO2)cc1 (racemic) [I-248] | ≥ 1000
[O-][S+](C1=NOC(c2ccc(OC(F)(F)F)cc2)C1)c1ccccc1 (racemic) [I-249] | ≥ 1000
O=S(=O)(C1=NOC(c2ccc(OC(F)(F)F)cc2)C1)c1ccccc1 (racemic) [I-250] | ≥ 1000
O=C(O)c1ccc(SC2=NOC(c3ccc(OC(F)(F)F)cc3)C2)cc1 (racemic) [I-251] | ≥ 1000
CCN(C1=NOC(c2ccc(OC(F)(F)F)cc2)C1)c1ccccc1 (racemic) [I-253] | ≥ 1000
CN(C1=NOC(c2ccc(OC(F)(F)F)cc2)C1)c1ccc(C(=O)O)cc1 (racemic) [I-255] | ≥ 1000
c1ccc(Oc2ccc(C3CC(N4CCCC4)=NO3)cc2)cc1 (racemic) [I-256] | ≥ 1000
Cn1nc(C(F)(F)F)cc1OC1=NOC(c2ccc(Oc3ccccc3)cc2)C1 (racemic) [I-257] | 100 to 1000
FC(F)(F)Oc1ccc(C2CC(Oc3cccc(-c4nnco4)c3)=NO2)cc1 (racemic) [I-258] | ≤ 100
Cc1nnc(-c2ccc(OC3=NOC(c4ccc(C(F)(F)F)cc4)C3)cn2)o1 (racemic) [I-259] | ≤ 100
CSc1ccc(OC2=NOC(C)(c3ccc(OC(F)(F)F)cc3)C2)cn1 (racemic) [I-261] | ≤ 100
BrC1=NOC(c2ccccc2)C1 (single isomer, unassigned) [I-1] | 100 to 1000
Clc1cccc(C2CC(Br)=NO2)c1 (single isomer, unassigned) [I-4] | 100 to 1000
Clc1ccccc1C1CC(Br)=NO1 (single isomer, unassigned) [I-5] | 100 to 1000
COc1cccc(C2CC(Br)=NO2)c1 (single isomer, unassigned) [I-7] | 100 to 1000
COc1ccccc1C1CC(Br)=NO1 (single isomer, unassigned) [I-8] | ≥ 1000
BrC1=NOC(c2ccc(Oc3ccccc3)cc2)C1 (single isomer, unassigned) [I-10] | ≤ 100
BrC1=NOC(c2cccc(Oc3ccccc3)c2)C1 (single isomer, unassigned) [I-11] | ≤ 100
BrC1=NOC(c2ccc(Oc3cccnc3)cc2)C1 (single isomer, unassigned) [I-12] | ≤ 100
BrC1=NOC(c2ccc(Oc3ncccn3)cc2)C1 (single isomer, unassigned) [I-13] | ≤ 100

SMILES | Ki [nM]
ClC1=NOC(c2ccc(Oc3ccccc3)cc2)C1 (single isomer, unassigned) [I-17] | ≤ 100
Cc1ccc(Oc2ccc(C3CC(Br)=NO3)cc2)nn1 (single isomer, unassigned) [I-18] | 100 to 1000
BrC1=NOC(c2ccc(-c3nnc(-c4ccccc4)o3)cc2)C1 (single isomer, unassigned) [I-19] | ≤ 100
O=C(OCc1ccccc1)c1ccc(C2CC(Br)=NO2)cc1 (single isomer, unassigned) [I-21] | ≤ 100
c1ccc(OC2=NOC(c3ccc(Oc4ccccc4)cc3)C2)cc1 (single isomer, unassigned) [I-23] | ≥ 1000
Fc1ccc(OC2=NOC(c3ccc(Oc4ccccc4)cc3)C2)cc1 (single isomer, unassigned) [I-24] | ≥ 1000
Fc1cccc(OC2=NOC(c3ccc(Oc4ccccc4)cc3)C2)c1 (single isomer, unassigned) [I-25] | 100 to 1000
FC(F)(F)c1cccc(OC2=NOC(c3ccc(Oc4ccccc4)cc3)C2)c1 (single isomer, unassigned) [I-26] | ≥ 1000
N#Cc1ccc(OC2=NOC(c3ccc(Oc4ccccc4)cc3)C2)cc1 (single isomer, unassigned) [I-27] | ≤ 100
N#Cc1ccccc1OC1=NOC(c2ccc(Oc3ccccc3)cc2)C1 (single isomer, unassigned) [I-28] | ≥ 1000
O=[N+]([O-])c1ccc(OC2=NOC(c3ccc(Oc4ccccc4)cc3)C2)cc1 (single isomer, unassigned) [I-29] | 100 to 1000
CS(=O)(=O)c1ccc(OC2=NOC(c3ccc(Oc4ccccc4)cc3)C2)cc1 (single isomer, unassigned) [I-30] | ≤ 100
Cc1ccc(OC2=NOC(c3ccc(Oc4ccccc4)cc3)C2)cc1F (single isomer, unassigned) [I-31] | ≥ 1000
c1ccc(NC2=NOC(c3ccc(Oc4ccccc4)cc3)C2)cc1 (single isomer, unassigned) [I-32] | ≥ 1000
O=c1ccccn1C1=NOC(c2ccc(Oc3ccccc3)cc2)C1 (single isomer, unassigned) [I-33] | ≥ 1000
c1ccc(Oc2ccc(C3CC(n4cncn4)=NO3)cc2)cc1 (single isomer, unassigned) [I-34] | ≥ 1000
c1ccc(Oc2ccc(C3CC(n4cccn4)=NO3)cc2)cc1 (single isomer, unassigned) [I-35] | ≥ 1000
c1ccc(Oc2ccc(C3CC(Oc4ccncc4)=NO3)cc2)cc1 (single isomer, unassigned) [I-36] | ≥ 1000
c1ccc(Oc2ccc(C3CC(Oc4cccnc4)=NO3)cc2)cc1 (single isomer, unassigned) [I-37] | ≤ 100
COC(=O)c1cncc(OC2=NOC(c3ccc(Oc4ccccc4)cc3)C2)c1 (single isomer, unassigned) [I-39] | ≤ 100
Cc1ccc(OC2=NOC(c3ccc(Oc4ccccc4)cc3)C2)cn1 (single isomer, unassigned) [I-40] | ≤ 100
c1ccc(Oc2ccc(C3CC(Oc4cncnc4)=NO3)cc2)cc1 (single isomer, unassigned) [I-41] | ≤ 100
